Assay results published in PubChem BioAssay AID328 (DTP/NCI, 2004).
“And” between values parts separate entries of the source, which are not always exact repeats. Equal values may be shown once. Toxic doses and inconclusive results are not listed.

Test system: BDF1 mice, P388 leukemia ip, median survival T/C
Test: NCI In Vivo Anticancer Drug Screen. Data for tumor model P388 Leukemia (intraperitoneal) in B6D2F1 (BDF1) mice
Conditions: endpoint: median survival time, higher = longer survival
How it was run: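 Read-out is survival of treated animals expressed relative to the vehicle group, as a T/C ratio.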

[1] = dose: 50.0 mg/kg/injection, schedule: Q01DX009 (ip), vehicle: saline
[2] = dose: 100.0 mg/kg/injection, schedule: Q01DX009 (ip), vehicle: saline
[3] = dose: 100.0 mg/kg/injection, schedule: Q04DX003 (ip), vehicle: saline
[4] = dose: 200.0 mg/kg/injection, schedule: Q04DX003 (ip), vehicle: saline with Tween-80

## N[C@@H](Cc1ccc(N(CCCl)CCCl)cc1)C(=O)O
dose: 0.5 mg/kg/injection, schedule: Q01DX009 (ip), vehicle: saline
  T/C: 167 % of control
dose: 0.5 mg/kg/injection, schedule: Q01DX010 (ip), vehicle: saline
  T/C: 227 % of control
dose: 1.0 mg/kg/injection, schedule: Q01DX009 (ip), vehicle: saline
  T/C: 245 % of control and 188 % of control
dose: 1.0 mg/kg/injection, schedule: Q01DX010 (ip), vehicle: saline
  T/C: 277 % of control
dose: 2.0 mg/kg/injection, schedule: Q01DX009 (ip), vehicle: saline
  T/C: 237 % of control and 254 % of control
dose: 2.0 mg/kg/injection, schedule: Q01DX010 (ip), vehicle: saline
  T/C: 300 % of control
dose: 2.5 mg/kg/injection, schedule: Q04DX003 (ip), vehicle: water
  T/C: 205 % of control
dose: 3.6 mg/kg/injection, schedule: Q01DX001 (ip), vehicle: saline
  T/C: 150 % of control and 181 % of control
dose: 4.0 mg/kg/injection, schedule: Q01DX009 (ip), vehicle: saline
  T/C: 113 % of control
dose: 4.0 mg/kg/injection, schedule: Q01DX010 (ip), vehicle: saline
  T/C: 113 % of control
dose: 4.0 mg/kg/injection, schedule: Q04DX003 (ip), vehicle: Klucel (hydroxypropylcellulose) (HPC)
  T/C: 236 % of control
dose: 6.0 mg/kg/injection, schedule: Q01DX001 (ip), vehicle: saline
  T/C: 167 % of control and 172 % of control
dose: 10.0 mg/kg/injection, schedule: Q01DX001 (ip), vehicle: Klucel (hydroxypropylcellulose) (HPC)
  T/C: 227 % of control and 245 % of control
dose: 12.5 mg/kg/injection, schedule: Q01DX001 (ip), vehicle: Klucel (hydroxypropylcellulose) (HPC)
  T/C: 240 % of control and 279 % of control
dose: 15.0 mg/kg/injection, schedule: Q01DX001 (ip), vehicle: Klucel (hydroxypropylcellulose) (HPC)
  T/C: 295 % of control and 298 % of control
dose: 17.5 mg/kg/injection, schedule: Q01DX001 (ip), vehicle: Klucel (hydroxypropylcellulose) (HPC)
  T/C: 286 % of control and 318 % of control
dose: 20.0 mg/kg/injection, schedule: Q01DX001 (ip), vehicle: Klucel (hydroxypropylcellulose) (HPC)
  T/C: 254 % of control and 259 % of control
dose: 40.0 mg/kg/injection, schedule: Q04DX003 (ip), vehicle: water
  T/C: 91 % of control and 96 % of control

## COc1cc2c[n+](C)c3c4cc(OC)c(OC)cc4ccc3c2cc1OC
dose: 3.12 mg/kg/injection, schedule: Q01DX009 (ip), vehicle: water
  T/C: 98 % of control
dose: 6.25 mg/kg/injection, schedule: Q01DX009 (ip), vehicle: water
  T/C: 112 % of control
dose: 12.5 mg/kg/injection, schedule: Q01DX009 (ip), vehicle: water
  T/C: 118 % of control
dose: 25.0 mg/kg/injection, schedule: Q01DX009 (ip), vehicle: other
  T/C: 153 % of control
dose: 25.0 mg/kg/injection, schedule: Q01DX009 (ip), vehicle: water
  T/C: 120 % of control
dose: 34.0 mg/kg/injection, schedule: Q01DX009 (ip), vehicle: saline
  T/C: 159 % of control
dose: 50.0 mg/kg/injection, schedule: Q01DX009 (ip), vehicle: other
  T/C: 174 % of control
[1]
  T/C: 188 % of control
dose: 50.0 mg/kg/injection, schedule: Q01DX009 (ip), vehicle: water
  T/C: 100 % of control
dose: 50.0 mg/kg/injection, schedule: Q04DX003 (ip), vehicle: water
  T/C: 103 % of control
dose: 52.0 mg/kg/injection, schedule: Q01DX009 (ip), vehicle: saline
  T/C: 150 % of control
dose: 80.0 mg/kg/injection, schedule: Q01DX009 (ip), vehicle: saline
  T/C: 165 % of control and 172 % of control
dose: 100.0 mg/kg/injection, schedule: Q01DX009 (ip), vehicle: Klucel (hydroxypropylcellulose) (HPC)
  T/C: 151 % of control
dose: 100.0 mg/kg/injection, schedule: Q01DX009 (ip), vehicle: other
  T/C: 172 % of control
[2]
  T/C: 200 % of control
dose: 100.0 mg/kg/injection, schedule: Q01DX009 (ip), vehicle: water
  T/C: 106 % of control
[3]
  T/C: 113 % of control
dose: 100.0 mg/kg/injection, schedule: Q04DX003 (ip), vehicle: water
  T/C: 120 % of control
dose: 120.0 mg/kg/injection, schedule: Q01DX009 (ip), vehicle: saline
  T/C: 155 % of control and 168 % of control
dose: 180.0 mg/kg/injection, schedule: Q01DX009 (ip), vehicle: saline
  T/C: 159 % of control
dose: 200.0 mg/kg/injection, schedule: Q01DX009 (ip), vehicle: saline
  T/C: 183 % of control
dose: 200.0 mg/kg/injection, schedule: Q04DX003 (ip), vehicle: saline
  T/C: 95 % of control
dose: 240.0 mg/kg/injection, schedule: Q01DX009 (ip), vehicle: saline
  T/C: 90 % of control
dose: 240.0 mg/kg/injection, schedule: Q04DX003 (ip), vehicle: saline
  T/C: 150 % of control
dose: 400.0 mg/kg/injection, schedule: Q04DX003 (ip), vehicle: water
  T/C: 92 % of control
dose: 600.0 mg/kg/injection, schedule: Q04DX003 (ip), vehicle: saline
  T/C: 100 % of control

## CCCC1([N+](C)(C)C)CSC1CC (centres undefined)
dose: 12.5 mg/kg/injection, schedule: Q04DX002 (ip), vehicle: saline
  T/C: 105 % of control
dose: 25.0 mg/kg/injection, schedule: Q04DX002 (ip), vehicle: saline
  T/C: 103 % of control
dose: 50.0 mg/kg/injection, schedule: Q04DX002 (ip), vehicle: saline
  T/C: 96 % of control

## CCCCCC(Br)C(Br)CC(Br)C(Br)CCCCCCCC(=O)O (centres undefined)
dose: 100.0 mg/kg/injection, schedule: Q01DX001 (ip), vehicle: Klucel (hydroxypropylcellulose) (HPC)
  T/C: 100 % of control
dose: 200.0 mg/kg/injection, schedule: Q01DX001 (ip), vehicle: Klucel (hydroxypropylcellulose) (HPC)
  T/C: 109 % of control
dose: 400.0 mg/kg/injection, schedule: Q01DX001 (ip), vehicle: Klucel (hydroxypropylcellulose) (HPC)
  T/C: 104 % of control

## Cc1cccc(C)c1NC(=O)c1ccccc1Cl
dose: 100.0 mg/kg/injection, schedule: Q04DX003 (ip), vehicle: saline with Tween-80
  T/C: 113 % of control
[4]
  T/C: 109 % of control
dose: 400.0 mg/kg/injection, schedule: Q04DX003 (ip), vehicle: saline with Tween-80
  T/C: 104 % of control

## COC1CCC2=C(C1)C(=O)CC1c3ccccc3CN21 (centres undefined)
dose: 25.0 mg/kg/injection, schedule: Q04DX003 (ip), vehicle: saline with Tween-80
  T/C: 100 % of control
dose: 50.0 mg/kg/injection, schedule: Q04DX003 (ip), vehicle: saline with Tween-80
  T/C: 104 % of control

## Cn1cncc1CC(Cl)CO (centres undefined)
dose: 25.0 mg/kg/injection, schedule: Q01DX009 (ip), vehicle: saline
  T/C: 100 % of control
[1]
  T/C: 99 % of control
[2]
  T/C: 103 % of control

## CCCCOP(=O)(N1CC1CC)N1CC1CC (centres undefined)
dose: 50.0 mg/kg/injection, schedule: Q04DX003 (ip), vehicle: saline
  T/C: 123 % of control
dose: 60.0 mg/kg/injection, schedule: Q04DX003 (ip), vehicle: saline
  T/C: 122 % of control
dose: 85.0 mg/kg/injection, schedule: Q04DX003 (ip), vehicle: saline
  T/C: 122 % of control
[3]
  T/C: 150 % of control
dose: 133.0 mg/kg/injection, schedule: Q04DX003 (ip), vehicle: saline with Tween-80
  T/C: 109 % of control
dose: 133.0 mg/kg/injection, schedule: Q04DX003 (ip), vehicle: saline
  T/C: 100 % of control
[4]
  T/C: 109 % of control
dose: 300.0 mg/kg/injection, schedule: Q04DX003 (ip), vehicle: saline
  T/C: 176 % of control

## Nc1ccc(N=Nc2ccccc2)c(N)n1
dose: 50.0 mg/kg/injection, schedule: Q04DX003 (ip), vehicle: Klucel (hydroxypropylcellulose) (HPC)
  T/C: 100 % of control
dose: 100.0 mg/kg/injection, schedule: Q04DX003 (ip), vehicle: Klucel (hydroxypropylcellulose) (HPC)
  T/C: 100 % of control

## COC(=O)c1ccc(CSc2ccccc2NC(=S)Nc2cccc(C(F)(F)F)c2)o1
dose: 200.0 mg/kg/injection, schedule: Q01DX009 (ip), vehicle: saline with Tween-80
  T/C: 90 % of control

## O=C1C=C(Nc2ccc(F)cc2)C(Nc2ccc(F)cc2)=CC1=O
dose: 87.5 mg/kg/injection, schedule: Q01DX009 (ip), vehicle: saline with Tween-80
  T/C: 87 % of control
dose: 350.0 mg/kg/injection, schedule: Q01DX009 (ip), vehicle: saline with Tween-80
  T/C: 91 % of control

## C/C=C1/CN(C)C2Cc3c([nH]c4ccccc34)C(c3cc4c5c([nH]c4cc3OC)C3(C(=O)OC)CC4CC(CC)C3N(CC5)C4)CC1C2C(=O)OC (centres undefined)
dose: 1.3 mg/kg/injection, schedule: Q01DX009 (ip), vehicle: alcohol
  T/C: 88 % of control
dose: 4.0 mg/kg/injection, schedule: Q01DX009 (ip), vehicle: alcohol
  T/C: 87 % of control
dose: 12.0 mg/kg/injection, schedule: Q01DX009 (ip), vehicle: alcohol
  T/C: 88 % of control
